Here are results for three compounds from US8877738B2, “Antipathogenic peptides” (priority 2009, dated 2014).

The subject of one data set is HCMV VR1814. The settings on record: HUVECs, M.O.I. 1, 6 days p.i. The procedure:
(§1) FIGS. 4A and 4B. […] HUVECs were infected with the endotheliotropic and clinical HCMV isolate VR1814 (FIG. 4B) at a M.O.I of 1. The extent of AD169 or AU replication was then assessed by titrating the infectivity of supernatants of HELF suspensions by standard plaque assay. The extent of VR1814 replication was measured by titrating the infectivity of supernatants of cell suspensions by the indirect immunoperoxidase staining procedure on HUVECs using a monoclonal antibody (mAb) reactive to the HCMV IE proteins. Plaques were microscopically counted, and the mean plaque counts for each peptide concentration were expressed as a percentage of the mean count of the controls. The number of plaques was plotted as a function of drug concentration, and the concentration producing a 50% reduction in plaque formation (IC50) was determined.
The cells and supernatants from the antiviral assay were then harvested and disrupted by sonication.

Data set [1] deals with HCMV clinical isolate AL1. Particulars: HELFs, M.O.I. 1, 6 days p.i. The protocol:
as §1
(§2) After 1 hour, they were infected with HCMV AD169 or HCMV AL1 at a M.O.I. of 1 PFU/cell. […] The cells and supernatants from the antiviral assay were then harvested and disrupted by sonication. The extent of virus replication was assessed by titrating the infectivity of supernatants of cell suspensions by standard plaque assay on HELFs.

The test system of data set [2] is HCMV laboratory strain AD169. The settings on record: HELFs, M.O.I. 1, treated 1 h before and during infection, 6 days p.i. The procedure: as §1, §2
The next data set has as its system HPV-16 PsV. The settings on record: HPV-16-SEAP PsV preincubated with peptide, 293TT cells, 72 h post-infection.
Another data set can be described thus: in vitro. Particulars: human, 293TT cells. The procedure: The 293TT cell line derived from human embryonal kidney cells transformed with the SV40 large T antigen was cultured in Dulbecco's modified Eagle's medium (DMEM) (Gibco/BRL, Gaithersburg, Md., USA) supplemented with heat-inactivated 10% bovine serum (Gibco/BRL), Glutamax-I (Invitrogen, Carlsbad, Calif., USA) and nonessential aminoacids. This cell line allows high levels of protein to be expressed from vectors containing the SV40 origin due to overreplication of the expression plasmid (Buck et al., 2004).
Cells were seeded at a density of 5×10^4/well in 24-well plates; the next day they were treated with serially diluted peptides to generate dose-response curves. Forty-eight or 72 h after treatment, cell viability was determined by the 3-(4,5-dimethylthiazol-2-yl)-2,5-diphenyltetrazolium bromide (MTT) method; 50% cytotoxic concentration (CC50) values were determined using Prism.

The test system of the next data set is HIV-1IIIb. The experiment in a line: HIV-1IIIb replication in C8166 cells (RNA load by real time RT-PCR, p24 ELISA). The format is cell-based. The settings on record: day 7 post-infection, 0.1-20 μg/ml. From the text: FIG. 8: Quantitative real time RT-PCR analysis of HIV-1 RNA load in HIV-1 infected C8166 cell culture supernatants at day 7 post infection. […] The data are reported as means±SD of three independent experiments performed in duplicate.
FIG. 9: ELISA HIV-1 p24 protein analysis in HIV-1 infected C8166 cell culture supernatants at day 7 post infection. […] The data are reported as means±SD of three independent experiments performed in duplicate.
HIV-1 RNA viral load and HIV-1 gag p24 content were determined at day 7 post-infection in the culture supernatants in three independent experiments performed in duplicate. HIV-1 RNA was extracted by Roche high pure viral nucleic acid kit (Roche, Mannheim, Germany) from 200 μl of culture supernatants and then RNA load was assessed by quantitative real time RT-PCR as previously described (Gibellini et al., 2004). In parallel, HIV-1 gag p24 protein amount was determined by ELISA HIV-1 p24 antigen kit (Biomerieux Marcy L'Etoile, France).
A general note: In qPCR the cycle at which signal appears reflects the starting amount.

The subject of another data set is HCMV AD169. The experiment in a line: HCMV attachment (adsorption) assay on HELF cells. The class given is cell-based. The settings on record: compound present during adsorption, 3 h at 4° C., 200 PFU AD169; plaques after 6 days. The protocol:
FIG. 6. HCMV adsorption to target cells is inhibited by SB105 and SB105-A10 dendrimeric peptides. Pre-chilled HELF cells were incubated at 4° C. with different concentrations of SB105, SB105-A10, SB104 or heparin and with 200 PFU of HCMV AD169. Following virus adsorption (3 h at 4° C.), cells were washed with cold PBS three times to remove compound and unadsorbed viruses, overlaid with medium containing 1.2% methylcellulose and incubated at 37° C. for 6 days. Viral plaques were then stained and counted and the mean plaque counts for each peptide concentration were expressed as a percentage of the mean count of the controls. The data shown represent means±SD of three independent experiments (error bars).
After 24 h, they were prechilled to 4° C. and incubated in duplicate at 4° C. with different concentrations of SB105, SB105_A10, SB104 (as negative control for inhibition of viral replication) or heparin (as a positive control for inhibition of viral adsorption) and with 200 PFU of HCMV AD169. Following virus adsorption (3 h at 4° C., a condition that is known to allow virus adsorption only), cells were then washed with cold PBS three times to remove compound and unadsorbed viruses, overlaid with medium containing 1.2% methylcellulose and incubated at 37° C. for 6 days. Plates were then fixed and stained with crystal violet and the viral plaques counted.

In another data set the test system is HSV-1. The experiment in a line: HSV-1 attachment (adsorption) assay on Vero cells. The format is cell-based. Particulars: compound present during adsorption, 3 h at 4° C., 200 PFU; plaques after 48 h. The procedure: (§3) FIG. 3. The dendrimeric peptides SB105 and SB105-A10 inhibit HSV-1 and HSV-2 attachment to Vero cells. Pre-chilled Vero cells were incubated at 4° C. with different concentrations of SB105, SB105-A10, SB104 or heparin and with 200 PFU of HSV-1 or HSV-2. Following virus adsorption (3 h at 4° C.), cells were then washed with cold PBS three times to remove compound and unadsorbed viruses, overlaid with medium containing 1.2% methylcellulose and incubated at 37° C. for 48 h. Viral plaques were then stained and counted, and the mean plaque counts for each peptide concentration expressed as a percentage of the mean count of the controls. The data shown represent means±SD of three independent experiments (error bars).
(§4) Following virus adsorption (3 h at 4° C., a condition that is known to allow virus adsorption only), cells were then washed with cold PBS three times to remove compound and unadsorbed viruses, overlaid with medium containing 1.2% methylcellulose and incubated at 37° C. Forty eight hours later, plates were fixed and stained with crystal violet and the viral plaques counted.

In a further data set the test system is HSV-2. Nature of the data set: HSV-2 attachment (adsorption) assay on Vero cells. The settings on record: compound present during adsorption, 3 h at 4° C., 200 PFU; plaques after 48 h. The format is cell-based. The protocol:
as §3, §4

Converted amounts (≈) assume the structure as drawn. Ends that are not written are not given here. A value given as a limit tells only on which side of the number the result lay.

One may read the CC50 as the concentration at which the toxic effect on the cells reaches its halfway point. Read a high CC50 as lower toxicity to the cells.

Text for HPV-16 PsV: HPV-16 PsV were produced according to previously described methods (Buck et al., 2005). Briefly, 293TT cells were transfected with the plasmid p16sheLL expressing the papillomavirus major and minor capsid proteins (L1 and L2) together with a reporter plasmid expressing the secreted alkaline phosphatase (SEAP) or the green fluorescence protein (GFP) named pYSEAP or pfwB respectively. Capsids were allowed to mature overnight in cell lysate; the clarified supernatant was then loaded on top of a 27-33-39% Optiprep (Sigma-Aldrich, St. Louis, Mo., USA) density gradient at room temperature for 4 h. […] The L1 protein content of PsV stocks was determined by comparison with bovine serum albumin standards in Coomassie-stained SDS-PAGE gels.
For the Secreted Embryonic Alkaline Phosphate (SEAP)-based assays 293TT cells were preplated 3-4 h in advance in 96-well tissue culture-treated flat bottom plates at a density of 30,000 cells/well in 100 μl neutralization buffer (DMEM without phenol red, 10% heat-inactivated FBS, 1% glutamate, 1% nonessential amino acids, 1% penicillin-streptomycin-fungizone, and 10 mM HEPES). […] The SEAP content in the clarified supernatant was determined using a Great ESCAPE SEAP Chemiluminescence Kit (BD Clontech, Mountain View, Calif., USA) as directed by the manufacturer. […]

As for `CC[C@H](C)[C@H](NC(=O)[C@H](CCCNC(=N)N)NC(=O)[C@@H](NC(=O)[C@H](CCCNC(=N)N)NC(=O)[C@H](CC(C)C)NC(=O)[C@H](CO)NC(=O)[C@H](C)N)C(C)C)C(=O)N[C@@H](CCCCN)C(=O)N[C@@H](CCCCN)C(=O)N[C@@H](CCC(N)=O)C(=O)NCCCC[C@H](NC(=O)[C@H](CCC(N)=O)NC(=O)[C@H](CCCCN)NC(=O)[C@H](CCCCN)NC(=O)[C@@H](NC(=O)[C@H](CCCNC(=N)N)NC(=O)[C@@H](NC(=O)[C@H](CCCNC(=N)N)NC(=O)[C@H](CC(C)C)NC(=O)[C@H](CO)NC(=O)[C@H](C)N)C(C)C)[C@@H](C)CC)C(=O)NCCCC[C@H](NC(=O)[C@H](CCCCNC(=O)[C@H](CCC(N)=O)NC(=O)[C@H](CCCCN)NC(=O)[C@H](CCCCN)NC(=O)[C@@H](NC(=O)[C@H](CCCNC(=N)N)NC(=O)[C@@H](NC(=O)[C@H](CCCNC(=N)N)NC(=O)[C@H](CC(C)C)NC(=O)[C@H](CO)NC(=O)[C@H](C)N)C(C)C)[C@@H](C)CC)NC(=O)[C@H](CCC(N)=O)NC(=O)[C@H](CCCCN)NC(=O)[C@H](CCCCN)NC(=O)[C@@H](NC(=O)[C@H](CCCNC(=N)N)NC(=O)[C@@H](NC(=O)[C@H](CCCNC(=N)N)NC(=O)[C@H](CC(C)C)NC(=O)[C@H](CO)NC(=O)[C@H](C)N)C(C)C)[C@@H](C)CC)C(=O)NCCC(N)=O` [SB105, (ASLRVRIKKQ)4-Lys2-Lys-β-Ala], the “IC50, endotheliotropic HCMV VR1814 replication” value in the data set with HCMV VR1814 came out at 1.1 µg/mL (≈ 0.212 µM). Further, in [1], the “IC50, HCMV clinical isolate AL1 replication” value amounted to 1.2 µg/mL (≈ 0.231 µM). Moreover, the “50% inhibition of HCMV AD169 replication (IC50)” value in data set [2] came to 1.17 µg/mL. For the same compound, the “IC50 against HPV-16 PsV” value in the data set with HPV-16 PsV was 11.6 µg/mL (≈ 2.23 µM). Moreover, the CC50 in “in vitro” was over 100 µg/mL.
“(NKKIRVRL)4-Lys2-Lys-β-Ala (also: tetramer on Lys2-Lys-β-Ala core) [SB104]”: the “HIV-1 gag p24 content in culture supernatants” value in the data set on HIV-1IIIb (ELISA) is “did not induce significant inhibition”. Further, the “HIV-1 RNA load in culture supernatants” value in the data set on HIV-1IIIb (real time RT-PCR) is “did not induce significant inhibition”. For the same compound, the “effect on HCMV attachment (adsorption) to HELF cells” value in the data set with HCMV AD169 is recorded as “did not significantly reduce”. The “effect on HSV-1 attachment to Vero cells” value with HSV-1 is given as “did not significantly reduce”. The “effect on HSV-2 attachment to Vero cells” value in the data set on HSV-2 is reported as “did not significantly reduce”.
For the compound heparin, the “effect on HCMV attachment (adsorption) to HELF cells” value in the data set with HCMV AD169 is “prevented virus adsorption”. Also, the “effect on HSV-1 attachment to Vero cells” value with HSV-1 was “prevented virus adsorption”. Moreover, the “effect on HSV-2 attachment to Vero cells” value in the data set with HSV-2 is on record as “prevented virus adsorption”.
